Test results published in patent US12180207B2 (ARRAY BIOPHARMA INC., priority 2018, dated 2024).

How the values were obtained:
[1] = target: FGFR1 (SEQ ID NO: 1, amino acids 458-765) (Homo sapiens (Human), UniProt P11362); experiment: LC/MS FGFR1 kobs assay (covalent protein modification); assay type: binding; details: 500 nM FGFR1, 3 μM compound
How it was run: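 Covalent labeling of FGFR1 kinase domain (aa 458-765) tracked over time by intact-protein LC/MS after formic acid quench. kobs derived by fitting DMSO-normalized percent unmodified FGFR1 to an exponential decay model.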

[2] = target: FGFR3 (SEQ ID NO: 5, amino acids 449-759) (Homo sapiens (Human), UniProt P22607); experiment: LC/MS FGFR3 kobs assay (covalent protein modification); assay type: binding; details: 500 nM FGFR3, 3 μM compound
How it was run: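 kobs is the rate constant from an exponential-decay fit of percent unmodified kinase, normalized to DMSO controls, averaged over multiple determinations where available. Time-course samples of FGFR1 (458-765) and FGFR3 (449-759) with compound were acid-quenched (0.4% formic acid) and protein adducts quantified by intact-mass LC/MS.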

[3] = target: recombinant human FGFR2 cytoplasmic domain (amino acids 403-822) (Homo sapiens (Human), UniProt P21802); experiment: FGFR2 enzyme activity assay (LanthaScreen TR-FRET); assay type: biochemical; details: 15 μM ATP, 20 min incubation at 22° C., average of multiple determinations if made, read-out: FGFR2 Enz FRET IC50
How it was run: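 Substrate phosphorylation was read by TR-FRET using Eu-PY20 antibody (60 min, 22 °C) after a 20 min, 22 °C reaction. The reaction used 15 μM ATP, 100 nM fluorescent poly-GT peptide and His-tagged FGFR2 403-822 ([…]) at pH 7.5 with 2% DMSO.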

[4] = target: recombinant human FGFR3 (amino acids R397-T806) (Homo sapiens (Human), UniProt P22607); experiment: FGFR3 enzyme activity assay (LanthaScreen TR-FRET); assay type: biochemical; details: 25 μM ATP, 10 min incubation at 22° C., average of multiple determinations if made, read-out: FGFR3 Enz FRET IC50
How it was run: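 GST-HIS6-tagged human FGFR3 (R397-T806) was reacted with 100 nM Alexa Fluor 647-Poly-GT substrate and 25 μM ATP plus compound in HEPES/MgCl2/Triton buffer, pH 7.5, 2% DMSO, for 10 min at 22 °C.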

[5] = target: recombinant human FGFR1 catalytic domain (amino acids 308-731) (Homo sapiens (Human), UniProt P11362); experiment: FGFR1 enzyme activity assay (LanthaScreen TR-FRET); assay type: biochemical; details: 20 min incubation at 22° C., average of multiple determinations if made, read-out: FGFR1 Enz FRET IC50
How it was run: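 His-tagged FGFR1 kinase domain with 100 nM Alexa Fluor 647-poly-GT peptide and ATP in pH 7.5 HEPES/MgCl2 buffer with 2% DMSO, 20 min at 22 °C. Quenched with EDTA plus 2 nM Eu-PY20 antibody and read after 60 min. IC50 comes from a 4-parameter fit of percent of control.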

Sequence of recombinant human FGFR3 (amino acids R397-T806) (P22607 397-806): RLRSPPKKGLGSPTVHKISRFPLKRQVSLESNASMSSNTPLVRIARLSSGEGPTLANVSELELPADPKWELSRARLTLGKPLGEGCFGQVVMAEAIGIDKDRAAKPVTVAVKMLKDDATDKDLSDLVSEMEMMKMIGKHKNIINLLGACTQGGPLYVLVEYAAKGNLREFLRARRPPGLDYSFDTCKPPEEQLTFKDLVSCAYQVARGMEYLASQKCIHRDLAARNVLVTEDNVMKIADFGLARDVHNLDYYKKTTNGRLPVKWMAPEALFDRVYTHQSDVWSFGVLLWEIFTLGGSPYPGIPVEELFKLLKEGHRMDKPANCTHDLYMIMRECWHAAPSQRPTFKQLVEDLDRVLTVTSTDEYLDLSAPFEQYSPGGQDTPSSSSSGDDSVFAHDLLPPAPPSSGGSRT
Sequence of FGFR3 (SEQ ID NO: 5, amino acids 449-759) (P22607 449-759): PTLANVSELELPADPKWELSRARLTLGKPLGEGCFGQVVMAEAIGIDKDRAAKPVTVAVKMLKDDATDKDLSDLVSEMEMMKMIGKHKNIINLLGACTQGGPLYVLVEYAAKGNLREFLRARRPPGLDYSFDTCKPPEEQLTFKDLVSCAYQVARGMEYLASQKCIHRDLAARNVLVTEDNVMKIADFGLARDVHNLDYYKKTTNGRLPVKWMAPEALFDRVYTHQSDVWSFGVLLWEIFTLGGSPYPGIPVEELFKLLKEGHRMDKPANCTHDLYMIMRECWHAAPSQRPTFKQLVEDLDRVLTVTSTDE
Sequence of recombinant human FGFR2 cytoplasmic domain (amino acids 403-822) (P21802 402-821): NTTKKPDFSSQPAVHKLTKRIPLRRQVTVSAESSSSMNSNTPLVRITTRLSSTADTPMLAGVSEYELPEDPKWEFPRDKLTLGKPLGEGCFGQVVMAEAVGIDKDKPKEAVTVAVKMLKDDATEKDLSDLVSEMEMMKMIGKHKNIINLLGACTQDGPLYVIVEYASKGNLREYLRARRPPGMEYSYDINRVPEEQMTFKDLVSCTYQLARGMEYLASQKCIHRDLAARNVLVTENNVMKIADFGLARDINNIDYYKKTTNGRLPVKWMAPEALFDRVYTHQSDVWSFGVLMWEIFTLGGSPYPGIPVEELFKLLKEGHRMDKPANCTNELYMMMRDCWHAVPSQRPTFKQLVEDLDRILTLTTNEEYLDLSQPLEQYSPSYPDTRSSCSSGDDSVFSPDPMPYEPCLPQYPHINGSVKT
Sequence of recombinant human FGFR1 catalytic domain (amino acids 308-731) (P11362 other isoform, or with tags, fused parts or gaps): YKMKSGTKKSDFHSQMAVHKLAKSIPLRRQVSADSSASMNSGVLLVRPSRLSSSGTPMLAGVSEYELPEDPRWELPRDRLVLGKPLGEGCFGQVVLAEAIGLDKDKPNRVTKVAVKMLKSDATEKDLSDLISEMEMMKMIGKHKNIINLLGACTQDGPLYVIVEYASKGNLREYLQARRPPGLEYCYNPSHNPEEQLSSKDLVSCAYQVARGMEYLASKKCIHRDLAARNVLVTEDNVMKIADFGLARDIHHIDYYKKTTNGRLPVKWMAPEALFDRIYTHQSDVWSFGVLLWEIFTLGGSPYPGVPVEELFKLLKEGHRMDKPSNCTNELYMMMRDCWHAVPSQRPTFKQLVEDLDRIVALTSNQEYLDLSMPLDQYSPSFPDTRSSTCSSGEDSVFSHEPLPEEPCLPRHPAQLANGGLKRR
Sequence of FGFR1 (SEQ ID NO: 1, amino acids 458-765) (P11362 458-765): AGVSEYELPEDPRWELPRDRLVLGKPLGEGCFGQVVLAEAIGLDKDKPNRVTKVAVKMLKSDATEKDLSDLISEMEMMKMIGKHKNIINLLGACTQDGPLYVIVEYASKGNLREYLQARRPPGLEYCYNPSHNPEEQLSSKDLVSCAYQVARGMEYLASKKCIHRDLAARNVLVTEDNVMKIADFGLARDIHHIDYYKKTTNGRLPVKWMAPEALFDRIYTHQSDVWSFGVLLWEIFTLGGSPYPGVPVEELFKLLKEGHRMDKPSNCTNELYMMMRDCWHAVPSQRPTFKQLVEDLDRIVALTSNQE

SMILES	FGFR1 Enz kobs [1] [min⁻¹]	FGFR3 Enz kobs [2] [min⁻¹]	IC50 [3] [nM]	IC50 [4] [nM]	IC50 [5] [nM]
C=CC(=O)Nc1cccc(C(=O)N2CC[C@@H](n3cc(-c4cc(OC)c5c(C#N)cnn5c4)cn3)C2)c1 [Example 56, (R)-N-(3-(3-(4-(3-cyano-4-methoxypyrazolo[1,5-a]pyridin-6-yl)-1H-pyrazol-1-yl)pyrrolidine-1-carbonyl)phenyl)acrylamide]	0.00181	0.01264	8	10	28
C=CC(=O)N1CCC(C#N)(C(=O)N2CCC(n3cc(-c4cc(OC)c5c(C#N)cnn5c4)cn3)CC2)C1 (stereo not shown) [Example 31, 6-(1-(1-(1-acryloyl-3-cyanopyrrolidine-3-carbonyl)piperidin-4-yl)-1H-pyrazol-4-yl)-4-methoxypyrazolo[1,5-a]pyridine-3-carbonitrile]	0.00146	0.02377	2	2	8
C=CC(=O)Nc1ccc(C(=O)N2CC[C@H](n3cc(-c4cc(OC)c5c(C#N)cnn5c4)cn3)C2)c(OC)c1 [Example 69, (S)-N-(4-(3-(4-(3-cyano-4-methoxypyrazolo[1,5-a]pyridin-6-yl)-1H-pyrazol-1-yl)pyrrolidine-1-carbonyl)-3-methoxyphenyl)acrylamide]	0.00422	0.01649	6	6	12
C=CC(=O)Nc1ccc(C(=O)N2CC[C@H](n3cc(-c4cc(OC)c5c(C#N)cnn5c4)cn3)C2)cc1OC [Example 71, (S)-N-(4-(3-(4-(3-cyano-4-methoxypyrazolo[1,5-a]pyridin-6-yl)-1H-pyrazol-1-yl)pyrrolidine-1-carbonyl)-2-methoxyphenyl)acryla72 mide]	0.00457	0.02545	4	6	18
C=CC(=O)Nc1ccc(C(=O)N2CCC[C@@H](n3cc(-c4cc(OC)c5c(C#N)cnn5c4)cn3)C2)cc1 [Example 23, (R)-N-(4-(3-(4-(3-cyano-4-methoxypyrazolo[1,5-a]pyridin-6-yl)-1H-pyrazol-1-yl)piperidine-1-carbonyl)phenyl)acrylamide]	0.00247	0.01176	12	16	36
C=CC(=O)N1CC(C(=O)N2CC[C@@H](n3cc(-c4cc(OC)c5c(C#N)cnn5c4)cn3)C2)C1 [Example 59, (R)-6-(1-(1-(1-acryloylazetidine-3-carbonyl)pyrrolidin-3-yl)-1H-pyrazol-4-yl)-4-methoxypyrazolo[1,5-a]pyridine-3-carbonitrile]	0.00106	0.00665	16	16	47
C=CC(=O)N1CC(C#N)(C(=O)N2CCC(n3cc(-c4cc(OC)c5c(C#N)cnn5c4)cn3)CC2)C1 [Example 39, 6-(1-(1-(1-acryloyl-3-cyanoazetidine-3-carbonyl)piperidin-4-yl)-1H-pyrazol-4-yl)-4-methoxypyrazolo[1,5-a]pyridine-3-carbonitrile]	0.01019	0.2019	5	3	11
C=CC(=O)N1CCC(F)(C(=O)N2CCC(n3cc(-c4cc(OC)c5c(C#N)cnn5c4)cn3)CC2)C1 (stereo not shown) [Example 30, 6-(1-(1-(1-acryloyl-3-fluoropyrrolidine-3-carbonyl)piperidin-4-yl)-1H-pyrazol-4-yl)-4-methoxypyrazolo[1,5-a]pyridine-3-carbonitrile]	0.00104	0.01214	3	2	9
C=CC(=O)N1CC(C(=O)N2CC3CCC(C2)N3c2ccc(-c3cc(OC)c4c(C#N)cnn4c3)cn2)C1 [Example 51, 6-(6-(3-(1-acryloylazetidine-3-carbonyl)-3,8-diazabicyclo[3.2.1]octan-8-yl)pyridin-3-yl)-4-methoxypyrazolo[1,5-a]pyridine-3-carbonitrile]	0.00338	0.01769	9	22	34
C=CC(=O)N1CC(C(=O)N2CCC(n3cc(-c4cc(OC)c5c(C#N)cnn5c4)cn3)CC2)C1 [Example 36, 6-(1-(1-(1-acryloylazetidine-3-carbonyl)piperidin-4-yl)-1H-pyrazol-4-yl)-4-methoxypyrazolo[1,5-a]pyridine-3-carbonitrile]	0.00127	0.01426	–	4	11

More lines, now with the values ahead:

FGFR1 Enz kobs [1] [min⁻¹]	FGFR3 Enz kobs [2] [min⁻¹]	IC50 [3] [nM]	IC50 [4] [nM]	IC50 [5] [nM]	SMILES
0.00646	0.05581	69	29	152	C=CC(=O)N1CC(OC)(C(=O)N2CCC(n3ncc(-c4cc(OC)c5c(C#N)cnn5c4)c3C)CC2)C1 [Example 88, 6-(1-(1-(1-acryloyl-3-methoxyazetidine-3-carbonyl)piperidin-4-yl)-5-methyl-1H-pyrazol-4-yl)-4-methoxypyrazolo[1,5-a]pyridine-3-carbonitrile]
0.00423	0.02714	3	1	9	C=CS(=O)(=O)N[C@H]1CC[C@H](C(=O)N2CCC(n3cc(-c4cc(OC)c5c(C#N)cnn5c4)cn3)CC2)C1 [Example 190, N-((1S,3S)-3-(4-(4-(3-cyano-4-methoxypyrazolo[1,5-a]pyridin-6-yl)-1H-pyrazol-1-yl)piperidine-1-carbonyl)cyclopentyl)-ethenesulfonamide]
0.00492	0.1061	13	7	77	C=CC(=O)N1CC(F)(C(=O)N2CCC(n3ncc(-c4cc(OC)c5c(C#N)cnn5c4)c3C)CC2)C1 [Example 85, 6-(1-(1-(1-acryloyl-3-fluoroazetidine-3-carbonyl)piperidin-4-yl)-5-methyl-1H-pyrazol-4-yl)-4-methoxypyrazolo[1,5-a]pyridine-3-carbonitrile]
0.00086	0.00615	8	9	31	C=CC(=O)N1CC(CN2CC(n3cc(-c4cc(OC)c5c(C#N)cnn5c4)cn3)C2)C1 [Example 81, 6-(1-(1-((1-acryloylazetidin-3-yl)methyl)azetidin-3-yl)-1H-pyrazol-4-yl)-4-methoxypyrazolo[1,5-a]pyridine-3-carbonitrile]
–	0.08524	5	3	11	C=CS(=O)(=O)Nc1cccc(C(=O)N2CCC(n3cc(-c4cc(OC)c5c(C#N)cnn5c4)cn3)CC2)c1 [Example 188, N-(3-(4-(4-(3-cyano-4-methoxypyrazolo[1,5-a]pyridin-6-yl)-1H-pyrazol-1-yl)piperidine-1-carbonyl)phenyl)eth-enesulfonamide]
